How the values were obtained:
[1] = PET with DDE (and GLD) in patients with whiplash associated disorder (WAD); type: in vivo, human; conditions: for increase of uptake at cervical vertebrae 2 and 3 (insertion in m. semispinalis capitis): one case
Description: Clinically, those patients with a higher uptake of DDE in the affected joint areas seem to report high pain ratings while being in the scanner.
In a similar experiment, sixteen patients were investigated using a high resolution PET scanner.
In the […] experiments, local uptake was present in all cases in the parotis and submandibularis glandulae. Differences between patients were found in areas related to the insertion of muscles to the occipital bone, vertebrae and clavicula.

[2] = PET-CT with DDE in healthy subjects; type: in vivo, human; conditions: eight healthy subjects
Description: In a third experiment eight healthy subjects were investigated using a PET-CT (Computerized Tomography) scanner. PET/CT combines the strengths of two well-established imaging modalities, PET for function and CT for anatomy, into a single imaging device. The subjects were free from pain in the neck and shoulder regions during at least two months and they had not been involved in accidents which could have caused a neck injury.

[3] = PET with DDE in inflamed joints (rheumatoid arthritis patients); type: in vivo, human
[4] = Frozen section autoradiography / in vitro binding on tissue slices; design: species or system human; conditions: for tracer binding in inflammatory tissues in vitro: about 20 micrometer slices, about 2 nM tracer, about 40 minutes, room temperature
Method: There are various hypothesis as to what biological mechanisms are behind the high uptake of DDE in inflammatory joint tissues of humans.
The in vitro binding experiments were performed on thin slices of tissue of about 20 micrometers in rats and in humans. The thin slices of tissues were adhered to gelatinized slide glasses. […] After incubation the slide glasses were washed about 3 times in a buffer, dried, and exposed on phosphor imaging plates for a minimum of 60 minutes.

[5] = Pilot PET experiments in patients with bacterial abscesses; type: in vivo, human; conditions: small pilot series in patients

C#CCN([11CH3])[C@@H](C)Cc1ccccc1 [DDE, D-[methyl-^11C]-deprenyl]
increase in uptake compared with the cerebellum, insertion of m. rectus capitis posterior major ([1]; bilaterally in 3 patients, normalized to inferior part of the cerebellum): 57%-127% | binding of tracer to soft tissue in the neck vertebra ([1]; four of eight WAD patients, PET): appeared to bind to soft tissue in the neck vertebra | difference in uptake between right and left side ([1]; fourth patient, no clear increase): 40% | increase of uptake at cervical vertebrae 2 and 3 (insertion in m. semispinalis capitis) [1]: approximately 70% | patients with increased uptake in the neck and shoulder areas ([1]; sixteen patients, high resolution PET scanner): about 50% | increased uptake in scanned neck and shoulder regions [2]: None of the subjects revealed an increased uptake | uptake and retention on swollen synovial tissue ([3]; inflamed synovial joints): very pronounced uptake and retention | uptake in affected joint after intra-articular injections of glucocorticoids ([3]; observed 6-14 days after treatment): significant diminishing of the uptake | blocking of uptake in inflamed joint by Eldepryl (MAO-B blocking) ([3]; one patient re-examined after administration of Eldepryl): no blocking effect | activity in inflamed tissue as seen in PET images ([3]; patients with rheumatoid arthritis): very high activity | reduction of activity in inflamed tissue ([3]; the day after intra-articular administration of glucocorticoid): 50% | tracer binding in inflammatory tissues in vitro [4]: very high | binding in frozen section autoradiography ([4]; various tissues): much higher binding in inflamed joints than any other tissues | increase of tracer uptake in bacterial abscesses [5]: no visible increase

[11CH3]Oc1ccc(-n2nnnc2C(F)(F)F)cc1CN[C@H]1CCCN[C@H]1c1ccccc1 [GLD, [^11C]-GR205171]
increase of uptake at cervical vertebrae 2 and 3 (insertion in m. semispinalis capitis) [1]: approximately 70% | tracer binding in inflammatory tissues in vitro [4]: very high | increase of tracer uptake in bacterial abscesses [5]: no visible increase

Reference: patent US20110293518A1 (GE HEALTHCARE LIMITED, priority 2005, published 2011)
